Measurements as given in patent publication US20120190707A1, “SELECTIVE INHIBITORS OF AKT AND METHODS OF USING SAME” (priority 2008, published 2012).
pIC50, pKi: −log10 of the molar value. Like-named read-outs stand apart in the source and are kept apart here.

Assays:
AKT transcripts = assay: QPCR analysis of AKT transcripts in melanoma cells; type: cell-based; details: data not shown
Excerpt: Given the effect of BI-69A11 on the level of AKT protein, we assessed the possible mechanisms underlying such an effect. First, we assessed whether BI-69A11 affects the level of AKT transcripts. RNA prepared from the melanoma cells, with and without treatment with BI-69A11, was subjected to QPCR analysis.

PI3K = assay: Activity of other protein kinases: PI3K; type: biochemical; details: 100 micro.M
Excerpt: We recently reported on the direct evaluation of a number of in silico approaches to identify AKT inhibitors (Forino et al., 2005) We achieved experimental validation of selected compounds using both a fluorescence-based enzymatic assay and a substrate phosphorylation assay involving the protein GSK-3 (Forino et al., 2005). Briefly, the virtual docking approach consists of selecting the top 4,000 out of 50,000 docked compounds, using a variety of computational docking approaches, including a consensus score among two different scoring functions (Forino et al., 2005). Of those, 100 compounds were selected based on ranking and favorable docking geometry.

AKT = assay: pAKT473 and total AKT by western analysis in 29-1 (PTEN+) cells; type: cell-based, human; details: 29-1 cells
Experimental: FIG. 6 describes the effect of BI-69A11 on phosphorylation and total levels of AKT in UACC 903 (PTEN−) cells. (A) UACC903 and the modified clone 29-1 (PTEN+) cells were exposed to 10 micro.M BI-69A11 and 50 micro.M LY294002 (a PI3K inhibitor) and the levels of pAKT473 and total AKT determined by western analysis. […] (SF=Serum Free). (B) BI-69A11 inhibits PRAS40 phosphorylation. UACC903 melanoma cells or 29-1 cells (PTEN+) were subjected to treatment with IGF-1 (20 ng/mL) and the level of PRAS40 phosphorylation was assessed. […] The cells were collected, lysed and levels of pPRAS40 and total PRAS40 determined by western analysis. (C) AKT association with HSP90 is inhibited by BI-69A11. Human melanoma cells were treated with BI-69A11 (10.micro.M) or DMSO control for 4 h, followed by protein preparation and immunoprecipitation using antibodies to pan-AKT. MG132 treatment, when used, initiated 1 h prior to treatment and lasted up to the preparation of proteins (total of 5 h). The right panel depicts analysis of total lysates.
The term “cell lines”, as used herein, unless otherwise indicated, refer to UACC 903 cells and 29-1 cells. The cells were cultured in DMEM, supplemented with 10% FBS and maintained at 37° C. in 5% CO2. Cells were plated to 75% confluency and grown overnight at 37° C. […]

Akt1 = Akt1 (Homo sapiens, UniProt P31749); assay: Akt1 inhibition, Z'-LYTE kit fluorescent-enzymatic assay; type: biochemical
Experimental: Here the top 4000 compounds out of 50000 docked compounds were selected using FlexX and Drugscore (BioSolvIT). The top 4000 docked structures were further evaluated and ranked according to Goldscore and Chemscore functions (CSCORE). A list of common 200 compounds was then selected among ranked top 700 compounds according to both scoring functions (FIG. 1B). […] The remaining 100 compounds were experimentally tested up to 30 μM against Akt1. The inhibitory activity was evaluated for the selected compounds by using Z'-LYTE™ kit assay provided by Invitrogen Corporation (19). […] Corning® 384-well low volume plates (20 μl) were used. The fluorescent-enzymatic assay has been performed following the protocol provided by Invitrogen Corporation, using a fluorescent plate reader (Victor2, Perkin-Elmer). […] C) Lineweaver-Burk Km and Km(app) evaluation for Akt1. Each measurement was performed in triplicate. […] The Ki and the Km(app) were calculated at fixed inhibitor concentrations, as reported in the text. All constant values were definitely evaluated by fitting the data to the Lineweaver-Burk plot; D) Akt1 inhibition assay using GSK-3 as a substrate. Comparison of compounds 1 and 2 (Table 1) with H89 at 10 μM. E) Dose response for compound 1. Akt (10 ng of recombinant enzyme) in 25 μl 1× kinase buffer (25 mM Tris, pH 7.5; 5 mM n-glycerol phosphate; 2 mM dithiothreitol; 0.1 mM Na3VO4; and 10 mM MgCl2), was mixed with 2.5 μl DMSO (1% stock) or MPA-D (100 μM in 1% DMSO). Samples were incubated on ice for 1.5 hours at which time 1 μg of GSK-3 fusion protein (Cell Signaling), which served as the substrate, was added followed by ATP (200 μM) to each reaction mixture. After the suspensions were incubated at 30° C. for 20 min, the reaction was terminated by the addition of 3×SDS sample buffer (187.5 mM Tris-HCl, pH 6.8; 6% SDS; 30% glycerol; 150 mM dithiothreitol; and 0.03% bromophenol blue). The samples were boiled for 5 min, and the proteins were separated on a 12% SDS polyacrylamide gel and subsequently transferred to a nitrocellulose membrane. Membranes were incubated with rabbit polyclonal anti-phospho-GSK-3α/β (Ser21/9) (Cell Signaling).
For these purposes, we initially determined the Km and the Vmax of the enzymatic reaction involving the peptide provided by the Z'-LYTE™ kit assay and Akt1 by varying the concentration of ATP. The above parameters appeared to be 7.9 μM and 0.0205 μmol min^−1 mg^−1, respectively. […] Because all our inhibitors affected the Km rather than the Vmax of the reaction (FIG. 2C), they can be truly considered ATP-competitive inhibitors of Akt1.

Chain of Akt1 (P31749 whole entry): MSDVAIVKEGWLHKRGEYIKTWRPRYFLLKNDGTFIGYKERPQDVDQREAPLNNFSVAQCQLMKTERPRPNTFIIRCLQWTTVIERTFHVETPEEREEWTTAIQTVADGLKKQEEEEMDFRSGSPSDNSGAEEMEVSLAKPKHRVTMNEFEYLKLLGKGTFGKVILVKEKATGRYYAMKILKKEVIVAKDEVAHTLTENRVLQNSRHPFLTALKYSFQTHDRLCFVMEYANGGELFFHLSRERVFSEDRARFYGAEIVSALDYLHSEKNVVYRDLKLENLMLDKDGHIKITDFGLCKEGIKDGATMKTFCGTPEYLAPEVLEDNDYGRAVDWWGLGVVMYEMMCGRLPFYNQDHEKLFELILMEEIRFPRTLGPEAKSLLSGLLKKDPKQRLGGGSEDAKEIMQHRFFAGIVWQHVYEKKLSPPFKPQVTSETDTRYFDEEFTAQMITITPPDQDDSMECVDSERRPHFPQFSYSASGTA

**Q.** What does the source list for `O=C(/C=C/c1nc2ccccc2[nH]1)c1c(O)nc2ccc(Cl)cc2c1-c1ccccc1` [Compound 2, (E)-3-(3-(1H-benzo[d]imidazol-2-yl)acryloyl)-6-chloro-4-phenylquinolin-2(1H)-one]?
**A.** level of AKT transcripts (AKT transcripts): did not identify differences; effect on PI3K activity (PI3K): did not affect; AKT phosphorylation (AKT): limited to no effect; levels of total AKT (AKT; 10 micro.M, increasing time after treatment): reduced levels of total AKT; IC50 values (in words) (Akt1): low-micromolar range; pKi (Akt1; 10 μM compound 1, 20 μM compound 2, 50 μM compound 3, increasing ATP, Lineweaver-Burk): 5.41; pIC50 (Akt1; AKT1, Example 2 (Forino et al., 2005), read-out: IC50 values): 5.64; pIC50 (Akt1; FIG. 2 legend, read-out: IC50 value): 5.35; type of inhibition of Akt1 (Akt1; affected Km rather than Vmax): ATP competitive inhibition
